The target of one test is AR / CBP ternary complex (Homo sapiens, UniProt P10275+Q92793). In words: Ternary complex formation assay (sandwich ELISA, AR capture, CBP antibody detection) in VCaP cell lysates. Type of test: cell-based. The essentials: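 VCaP cells in 5% charcoal-stripped FBS were cultured ≥3 days and then given bifunctional compound for 1.5 h. Lysates went onto AR-antibody-coated plates. Bound CBP (or p300) was detected with a rabbit antibody plus HRP anti-rabbit, using QuantaRed chemifluorescence (ex 570/em 585) read immediately, at 5 min and at 15 min.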
Background: ELISA stands for enzyme-linked immunosorbent assay.

Another test deals with VCaP cells. As to the kind of experiment: VCaP growth inhibition assay (CTG). The format is cell-based. The conditions noted are these: Homo sapiens, 216 h, 30 pM R1881, 9 days. The essentials: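 VCaP cells in phenol red-free DMEM with 5% charcoal-stripped serum were stimulated with 30 pM R1881 (final) and treated with compound from 100 nM to 10 fM final (1:5 dilutions) for 9 days at 37 °C. Viability was read by CellTiter-Glo luminescence, and IC50 came from 4-parameter logistic fits.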

[1] abbreviates: treated 1.5 hours, rabbit CBP or p300 antibody detection, average, read-out: Average Ternary Complex.

Experimental findings from patent publication US20250136578A1 (Kolm Therapeutics Inc., priority 2023, published 2025) are described below.

Each structure is given as a SMILES string. Where two headings read alike, the source gives them in different places.

Sequence of AR / CBP ternary complex (P10275 whole entry): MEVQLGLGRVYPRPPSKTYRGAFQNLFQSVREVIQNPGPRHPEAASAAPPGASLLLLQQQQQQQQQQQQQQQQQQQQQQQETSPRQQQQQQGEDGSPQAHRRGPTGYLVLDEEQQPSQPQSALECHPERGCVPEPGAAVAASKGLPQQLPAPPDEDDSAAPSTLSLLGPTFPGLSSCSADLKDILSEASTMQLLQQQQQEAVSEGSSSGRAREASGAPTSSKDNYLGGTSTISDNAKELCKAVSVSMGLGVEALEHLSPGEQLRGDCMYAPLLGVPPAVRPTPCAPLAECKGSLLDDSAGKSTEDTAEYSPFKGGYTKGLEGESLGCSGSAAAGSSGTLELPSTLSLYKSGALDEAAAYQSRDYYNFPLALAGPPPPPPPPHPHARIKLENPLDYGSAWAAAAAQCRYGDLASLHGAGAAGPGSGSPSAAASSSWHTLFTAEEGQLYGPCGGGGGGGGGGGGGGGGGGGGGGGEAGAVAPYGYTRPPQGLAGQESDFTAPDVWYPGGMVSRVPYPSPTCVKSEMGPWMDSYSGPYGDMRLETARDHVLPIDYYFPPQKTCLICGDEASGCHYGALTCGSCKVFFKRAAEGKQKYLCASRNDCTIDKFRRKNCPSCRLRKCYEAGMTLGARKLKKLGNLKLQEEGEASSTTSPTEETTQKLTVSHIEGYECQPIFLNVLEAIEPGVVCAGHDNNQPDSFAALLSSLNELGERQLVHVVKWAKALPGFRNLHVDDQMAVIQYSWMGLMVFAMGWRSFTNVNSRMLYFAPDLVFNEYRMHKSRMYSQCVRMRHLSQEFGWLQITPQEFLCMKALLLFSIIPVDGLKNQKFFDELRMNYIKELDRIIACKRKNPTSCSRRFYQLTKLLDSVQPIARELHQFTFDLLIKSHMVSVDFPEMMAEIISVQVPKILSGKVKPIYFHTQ
Sequence of AR / CBP ternary complex (Q92793 2-2442): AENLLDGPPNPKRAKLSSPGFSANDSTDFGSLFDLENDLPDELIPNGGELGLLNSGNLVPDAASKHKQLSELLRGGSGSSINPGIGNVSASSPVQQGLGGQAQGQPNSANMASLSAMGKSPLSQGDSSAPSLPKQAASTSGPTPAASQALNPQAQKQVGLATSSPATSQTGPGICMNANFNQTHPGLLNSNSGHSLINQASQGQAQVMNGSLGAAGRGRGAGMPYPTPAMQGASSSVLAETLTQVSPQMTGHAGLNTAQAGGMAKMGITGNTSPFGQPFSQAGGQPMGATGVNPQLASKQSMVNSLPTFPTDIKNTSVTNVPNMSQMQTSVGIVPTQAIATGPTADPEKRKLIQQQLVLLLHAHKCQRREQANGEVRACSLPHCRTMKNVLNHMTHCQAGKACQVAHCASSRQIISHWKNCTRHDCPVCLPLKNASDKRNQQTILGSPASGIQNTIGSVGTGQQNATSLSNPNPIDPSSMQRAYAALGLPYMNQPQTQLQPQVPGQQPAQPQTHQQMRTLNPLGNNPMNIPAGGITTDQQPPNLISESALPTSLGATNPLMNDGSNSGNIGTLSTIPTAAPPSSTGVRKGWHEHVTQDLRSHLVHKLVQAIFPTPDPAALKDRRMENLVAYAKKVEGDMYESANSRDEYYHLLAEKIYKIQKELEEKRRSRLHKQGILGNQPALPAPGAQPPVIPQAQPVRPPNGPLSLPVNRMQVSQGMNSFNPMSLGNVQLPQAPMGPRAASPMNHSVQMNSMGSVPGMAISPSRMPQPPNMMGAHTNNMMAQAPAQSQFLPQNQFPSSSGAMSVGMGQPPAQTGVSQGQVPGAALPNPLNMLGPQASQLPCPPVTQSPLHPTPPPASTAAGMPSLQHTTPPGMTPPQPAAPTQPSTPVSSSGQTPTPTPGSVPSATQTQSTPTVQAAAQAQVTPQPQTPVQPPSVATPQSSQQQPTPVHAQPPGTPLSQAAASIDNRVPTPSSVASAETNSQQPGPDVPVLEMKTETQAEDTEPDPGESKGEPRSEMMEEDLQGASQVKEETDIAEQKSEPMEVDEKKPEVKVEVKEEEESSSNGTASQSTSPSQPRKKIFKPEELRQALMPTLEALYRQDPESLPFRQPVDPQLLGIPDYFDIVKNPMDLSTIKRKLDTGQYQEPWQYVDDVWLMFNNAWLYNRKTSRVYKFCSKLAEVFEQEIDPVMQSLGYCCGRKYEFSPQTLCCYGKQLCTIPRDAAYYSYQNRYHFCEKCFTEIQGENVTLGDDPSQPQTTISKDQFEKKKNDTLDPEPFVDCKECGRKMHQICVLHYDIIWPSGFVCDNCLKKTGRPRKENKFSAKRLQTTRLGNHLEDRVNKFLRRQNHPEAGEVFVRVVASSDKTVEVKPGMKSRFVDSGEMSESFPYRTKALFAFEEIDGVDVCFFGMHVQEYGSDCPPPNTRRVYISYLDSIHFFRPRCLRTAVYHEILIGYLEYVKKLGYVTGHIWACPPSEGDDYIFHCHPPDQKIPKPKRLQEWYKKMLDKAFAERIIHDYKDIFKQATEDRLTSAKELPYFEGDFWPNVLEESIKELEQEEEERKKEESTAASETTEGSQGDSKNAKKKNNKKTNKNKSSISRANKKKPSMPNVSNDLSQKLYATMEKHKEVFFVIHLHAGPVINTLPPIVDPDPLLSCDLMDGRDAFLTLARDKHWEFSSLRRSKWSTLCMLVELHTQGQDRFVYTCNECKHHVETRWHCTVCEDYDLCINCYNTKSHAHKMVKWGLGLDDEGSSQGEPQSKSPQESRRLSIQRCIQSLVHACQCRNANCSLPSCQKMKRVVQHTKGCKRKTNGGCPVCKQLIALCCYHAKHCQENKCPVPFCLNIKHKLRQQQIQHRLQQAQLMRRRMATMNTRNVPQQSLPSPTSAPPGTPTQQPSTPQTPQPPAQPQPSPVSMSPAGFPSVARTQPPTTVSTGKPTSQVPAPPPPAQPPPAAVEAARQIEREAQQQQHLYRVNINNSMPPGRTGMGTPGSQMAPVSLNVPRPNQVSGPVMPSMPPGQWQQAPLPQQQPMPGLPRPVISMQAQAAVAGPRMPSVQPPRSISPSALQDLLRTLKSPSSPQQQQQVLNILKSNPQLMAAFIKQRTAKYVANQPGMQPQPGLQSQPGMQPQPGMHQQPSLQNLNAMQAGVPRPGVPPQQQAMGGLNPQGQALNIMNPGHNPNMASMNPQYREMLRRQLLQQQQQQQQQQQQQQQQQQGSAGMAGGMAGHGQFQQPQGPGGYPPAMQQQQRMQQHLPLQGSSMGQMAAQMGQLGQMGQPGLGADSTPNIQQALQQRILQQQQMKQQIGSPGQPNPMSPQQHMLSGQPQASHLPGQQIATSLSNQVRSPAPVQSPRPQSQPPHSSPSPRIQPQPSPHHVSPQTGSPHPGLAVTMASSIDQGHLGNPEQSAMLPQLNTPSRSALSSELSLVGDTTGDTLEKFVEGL

As to `CC(=O)N1CCc2c(c(N3CCCc4cc(-c5cnn(C)c5)c(C(F)F)cc43)nn2[C@H]2CC[C@H](OC3CCN(c4ccc(C(=O)N[C@H]5CC[C@H](Oc6ccc(C#N)c(Cl)c6)CC5)nn4)CC3)CC2)C1` [Compound 205, 6-[4-[4-[5-acetyl-3-[7-(difluoromethyl)-6-(1-methylpyrazol-4-yl)-3,4-dihydro-2H-quinolin-1-yl]-6,7-dihydro-4H-pyrazolo[4,3-c]pyridin-1-yl]cyclohexoxy]-1-piperidyl]-N-[4-(3-chloro-4-cyano-phenoxy)cyclohexyl]pyridazine-3-carboxamide], the EC50 on AR / CBP ternary complex (setting [1]) is less than 1 nM. Further, in the test on VCaP cells, the IC50 (commonly the concentration needed to halve the response being measured) was not above 0.1 nM.
For the molecule `CC(=O)N1CCc2c(c(N3CCCc4cc(-c5cnn(C)c5)c(C(F)F)cc43)nn2C2CCC3(CC2)CC(N2CCN(c4ccc(C(=O)N[C@H]5CC[C@H](Oc6ccc(C#N)c(Cl)c6)CC5)nn4)CC2)C3)C1` (stereo partly drawn) [Compound 208, 6-[4-[7-[5-acetyl-3-[7-(difluoromethyl)-6-(1-methylpyrazol-4-yl)-3,4-dihydro-2H-quinolin-1-yl]-6,7-dihydro-4H-pyrazolo[4,3-c]pyridin-1-yl]spiro[3.5]nonan-2-yl]piperazin-1-yl]-N-[4-(3-chloro-4-cyano-phenoxy)cyclohexyl]pyridazine-3-carboxamide], on AR / CBP ternary complex (read-out: Average Ternary Complex, treated 1.5 hours, rabbit CBP or p300 antibody detection), the EC50 is less than 1 nM. For the same molecule, the IC50 in the test on VCaP cells was not above 0.1 nM.
For `CC(=O)N1CCc2c(c(N3CCCc4cc(-c5cnn(C)c5)c(C)cc43)nn2C2CCN(CC3CCN(c4ccc(C(=O)N[C@H]5CC[C@H](Oc6ccc(C#N)c(Cl)c6C)CC5)nn4)CC3(C)C)CC2)C1` (stereo partly drawn) [Compound 291, 6-[4-[[4-[5-acetyl-3-[7-methyl-6-(1-methylpyrazol-4-yl)-3,4-dihydro-2H-quinolin-1-yl]-6,7-dihydro-4H-pyrazolo[4,3-c]pyridin-1-yl]-1-piperidyl]methyl]-3,3-dimethyl-1-piperidyl]-N-[4-(3-chloro-4-cyano-2-methyl-phenoxy)cyclohexyl]pyridazine-3-carboxamide], the EC50 on AR / CBP ternary complex (setting [1]) was less than 1 nM. The molecule also registered a half-maximal inhibitory concentration (IC50) in the test on VCaP cells not above 0.1 nM.
`CC(=O)N1CCc2c(c(N3CCCc4ccc(C(F)F)cc43)nn2C2CCN(C(=O)C3CCN(c4ccc(C(=O)N[C@H]5CC[C@H](Oc6ccc(C#N)c(Cl)c6)CC5)nn4)CC3)CC2)C1` [Compound 62, 6-[4-[4-[5-acetyl-3-[7-(difluoromethyl)-3,4-dihydro-2H-quinolin-1-yl]-6,7-dihydro-4H-pyrazolo[4,3-c]pyridin-1-yl]piperidine-1-carbonyl]-1-piperidyl]-N-[4-(3-chloro-4-cyano-phenoxy)cyclohexyl]pyridazine-3-carboxamide]: the EC50 on AR / CBP ternary complex (setting [1]) was less than 1 nM. The IC50 in the test on VCaP cells was not above 0.1 nM.
On to `CC(=O)N1CCc2c(c(N3CCCc4cc(-c5cnn(C)c5)c(C(F)F)cc43)nn2C2CCN(C3CC4(CCN(c5ccc(C(=O)N[C@H]6CC[C@H](Oc7ccc(C#N)c(Cl)c7)CC6)nn5)CC4)C3)CC2)C1` [Compound 176, 6-[2-[4-[5-acetyl-3-[7-(difluoromethyl)-6-(1-methylpyrazol-4-yl)-3,4-dihydro-2H-quinolin-1-yl]-6,7-dihydro-4H-pyrazolo[4,3-c]pyridin-1-yl]-1-piperidyl]-7-azaspiro[3.5]nonan-7-yl]-N-[4-(3-chloro-4-cyano-phenoxy)cyclohexyl]pyridazine-3-carboxamide], for which the EC50 on AR / CBP ternary complex (setting [1]) was less than 1 nM. Also, the IC50 in the test on VCaP cells lay in the range of 0.1 to 1 nM.
On the same counts, the results for `CC(=O)N1CCc2c(c(N3CCCc4cc(-c5cnn(C)c5)c(C(F)F)cc43)nn2C2CC3(CCN(C4CCN(c5ccc(C(=O)N[C@H]6CC[C@H](Oc7ccc(C#N)c(Cl)c7)CC6)nn5)CC4)CC3)C2)C1` [Compound 239, 6-[4-[2-[5-acetyl-3-[7-(difluoromethyl)-6-(1-methylpyrazol-4-yl)-3,4-dihydro-2H-quinolin-1-yl]-6,7-dihydro-4H-pyrazolo[4,3-c]pyridin-1-yl]-7-azaspiro[3.5]nonan-7-yl]-1-piperidyl]-N-[4-(3-chloro-4-cyano-phenoxy)cyclohexyl]pyridazine-3-carboxamide] are less than 1 nM and not above 0.1 nM.
Consider `CC(=O)N1CCc2c(c(N3CCCc4cc(-c5cnn(C)c5)c(C)cc43)nn2C2CCN(CC3CCN(c4ccc(C(=O)N[C@H]5CC[C@H](Oc6ccc(C#N)c(C)c6C)CC5)nn4)CC3(C)C)CC2)C1` (stereo partly drawn) [Compound 292, 6-[4-[[4-[5-acetyl-3-[7-methyl-6-(1-methylpyrazol-4-yl)-3,4-dihydro-2H-quinolin-1-yl]-6,7-dihydro-4H-pyrazolo[4,3-c]pyridin-1-yl]-1-piperidyl]methyl]-3,3-dimethyl-1-piperidyl]-N-[4-(4-cyano-2,3-dimethyl-phenoxy)cyclohexyl]pyridazine-3-carboxamide], for which, on AR / CBP ternary complex (setting [1]), the EC50 was less than 1 nM. The same molecule yielded an IC50 with VCaP cells not above 0.1 nM.
As to `Cn1cc(-c2cc3c(cc2C(F)F)N(c2cc(C4=CCN(CC5CCN(c6ccc(C(=O)N[C@H]7CC[C@H](Oc8ccc(C#N)c(Cl)c8)CC7)nn6)CC5)CC4)c4c(c2)n(C)c(=O)n4C)CCC3)cn1` [Compound 148], on AR / CBP ternary complex (setting [1]), the EC50 was less than 1 nM. In the test with VCaP cells, the IC50 is 0.1 to 1 nM.
Turning to `Cn1cc(-c2cc3cccc(-c4cc(C5CCN(CC6CCN(c7ccc(C(=O)N[C@H]8CC[C@H](Oc9ccc(C#N)c(Cl)c9)CC8)nn7)CC6)CC5)c5c(c4)n(C)c(=O)n5C)c3cn2)cn1` [Compound 31, N-[4-(3-chloro-4-cyano-phenoxy)cyclohexyl]-6-[4-[[4-[1,3-dimethyl-6-[3-(1-methylpyrazol-4-yl)-8-isoquinolyl]-2-oxo-benzimidazol-4-yl]-1-piperidyl]methyl]-1-piperidyl]pyridazine-3-carboxamide], the EC50 at AR / CBP ternary complex (setting [1]) is less than 1 nM. The IC50 in the test with VCaP cells is not above 0.1 nM.
Take `CC(=O)N1CCc2c(c(N3CCCc4ccc(C(F)F)cc43)nn2C2CC3(C2)CN(CC2CC4(C2)CN(c2ccc(C(=O)N[C@H]5CC[C@H](Oc6ccc(C#N)c(Cl)c6)CC5)nn2)C4)C3)C1` (stereo partly drawn) [Compound 43, -[6-[[6-[5-acetyl-3-[7-(difluoromethyl)-3,4-dihydro-2H-quinolin-1-yl]-6,7-dihydro-4H-pyrazolo[4,3-c]pyridin-1-yl]-2-azaspiro [3.3]heptan-2-yl]methyl]-2-azaspiro [3.3]heptan-2-yl]-N-[4-(3-chloro-4-cyano-phenoxy)cyclohexyl] pyridazine-3-carboxamide]: on AR / CBP ternary complex (setting [1]), the EC50 was 1 to 10 nM. For the same molecule, the IC50 in the test on VCaP cells lay in the range of 0.1 to 1 nM.
As for `CC(=O)N1CCc2c(c(N3CCCc4cc(-c5cnn(C)c5)c(C(F)F)cc43)nn2C2CCN(C(=O)C3CCN(c4ccc(C(=O)N[C@H]5CC[C@H](Oc6ccc(C#N)c(Cl)c6)CC5)cn4)CC3)CC2)C1` [Compound 158, 6-[4-[4-[5-acetyl-3-[7-(difluoromethyl)-6-(1-methylpyrazol-4-yl)-3,4-dihydro-2H-quinolin-1-yl]-6,7-dihydro-4H-pyrazolo[4,3-c]pyridin-1-yl]piperidine-1-carbonyl]-1-piperidyl]-N-[4-(3-chloro-4-cyano-phenoxy)cyclohexyl]pyridine-3-carboxamide], the EC50 at AR / CBP ternary complex (setting [1]) fell in the range of 1 to 10 nM. For the same molecule, in the test with VCaP cells, the IC50 was in the range of 0.1 to 1 nM.
On the same counts, the results for `Cn1c(=O)n(C)c2cc(N3CCCc4cc(-c5ccc(CCC6CCN(c7ccc(C(=O)N[C@H]8CC[C@H](Oc9ccc(C#N)c(Cl)c9)CC8)nn7)CC6)nc5)ncc43)ccc21` [Compound 54, N-[4-(3-chloro-4-cyano-phenoxy)cyclohexyl]-6-[4-[2-[5-[1-(1,3-dimethyl-2-oxo-benzimidazol-5-yl)-3,4-dihydro-2H-1,7-naphthyridin-6-yl]-2-pyridyl]ethyl]-1-piperidyl] pyridazine-3-carboxamide] are 1 to 10 nM and 0.1 to 1 nM.
